# Experiments:
# [1] = target: Recombinant human CSF1R kinase (Homo sapiens (Human), UniProt P07333); assay: Measurement of CSF1R kinase activity at molecular level (Z-LYTE); format: biochemical; conditions: Z-LYTE Tyr 1 peptide
# Experimental: Invitrogen, PV3227; • Development reagent B: Invitrogen, PV3295; • Development buffer: Invitrogen. P3127; • Stopping solution: Invitrogen, P3094; • Recombinant human CSF1R kinase: Invitrogen, P[…]; • 384 well plate, black: Corning. 3575; • Envision: Perkin Elmer. 2. […] The test compound was diluted in gradient to 4-fold the reaction concentration and the concentration of DMSO was kept at 8%. […] The mixture was mixed gently with a pipette. • 4) A phosphorylated peptide substrate solution (PP solution): 0.4 μL of Z-LYTETM Tyr1 phosphorylated peptide substrate was added to 99.6 μl of 1.33× kinase buffer. • 5) ATP solution: 10 mM of ATP was diluted to 760 μM with 1.33× kinase buffer to prepare ATP solution. • 6) Development solution: Development reagent B was diluted with Development buffer at a ratio of 1:200. 3. […] 2.5 μL of 4× test compound was added to each reaction well of the 384 plate, and the corresponding volume of 8% DMSO was added to the control well. The plate was placed on ice. […] After adding the reaction components, the 384-well plate was sealed and incubated at 25-30° C. for 1 h in dark. 2) Development Reaction 5 μL of Development solution was added to each well, sealed and incubated at 25-30° C. for another 1 h in dark. 3) Reaction Stopping and Plate Reading 5 μL of stopping solution was added to each well. The Coumarin value (excitation at 400 nm, emission at 445 nm) and Fluorescein value (excitation at 400 nm, emission at 520 nm) were measured, respectively. 4. […] Coumarin emission read-out (445 nm)/Fluorescein emission read-out (520 nm); • C3 445 nm: 100% phosphorylated Coumarin emission read-out; • C3 520 nm: 100% phosphorylated Fluorescein emission read-out; • C1 445 nm: 0% phosphorylated Coumarin emission read-out; • C1 520 nm: 0% phosphorylated Fluorescein emission read-out. […] 5. IC50 values: calculated by using software XL-FitTM (version 5.3) supplied by ID Business Solutions (Guildford, UK), which is an additional software to Microsoft Excel.
# [2] = target: CSF1R phosphorylation in THP-1 cells (Homo sapiens (Human), UniProt P07333); assay: Detection of CSF1R phosphorylation activity at cell level (p-CSF1R ELISA, M-CSF stimulated THP-1 cells); format: cell-based; conditions: THP-1 cells, M-CSF stimulation, p-CSF1R ELISA; read-out: IC50
# Chain of CSF1R phosphorylation in THP-1 cells (P07333 20-972): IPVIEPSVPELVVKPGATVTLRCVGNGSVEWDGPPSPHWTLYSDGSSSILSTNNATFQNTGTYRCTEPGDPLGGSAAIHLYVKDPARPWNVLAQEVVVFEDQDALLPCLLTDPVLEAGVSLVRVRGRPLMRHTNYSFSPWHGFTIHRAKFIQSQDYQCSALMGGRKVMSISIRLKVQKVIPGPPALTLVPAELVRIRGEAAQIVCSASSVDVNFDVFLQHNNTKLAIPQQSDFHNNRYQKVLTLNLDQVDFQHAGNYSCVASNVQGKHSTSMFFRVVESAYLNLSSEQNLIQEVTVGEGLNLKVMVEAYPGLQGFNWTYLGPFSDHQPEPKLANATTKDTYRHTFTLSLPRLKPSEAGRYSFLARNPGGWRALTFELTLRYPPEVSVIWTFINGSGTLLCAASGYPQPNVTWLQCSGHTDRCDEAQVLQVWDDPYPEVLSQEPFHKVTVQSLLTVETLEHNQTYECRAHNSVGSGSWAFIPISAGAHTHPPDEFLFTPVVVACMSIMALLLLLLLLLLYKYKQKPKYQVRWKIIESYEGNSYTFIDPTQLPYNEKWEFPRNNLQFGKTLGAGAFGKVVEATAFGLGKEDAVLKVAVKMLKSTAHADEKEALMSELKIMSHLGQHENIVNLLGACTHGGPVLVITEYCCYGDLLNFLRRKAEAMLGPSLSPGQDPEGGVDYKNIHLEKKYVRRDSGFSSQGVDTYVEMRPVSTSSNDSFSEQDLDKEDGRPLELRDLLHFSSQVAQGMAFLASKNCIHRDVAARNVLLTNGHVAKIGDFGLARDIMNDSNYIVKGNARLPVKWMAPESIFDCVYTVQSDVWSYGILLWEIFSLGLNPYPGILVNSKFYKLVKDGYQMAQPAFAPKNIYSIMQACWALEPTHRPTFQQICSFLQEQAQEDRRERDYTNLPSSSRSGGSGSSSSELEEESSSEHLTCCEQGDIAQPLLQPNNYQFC
# Experimental: THP-1 (ATCC), human acute monocytic leukemia cells.
# 3. Treatment of cells and preparation of lysis buffer
# 5 μL. of the diluted compound was added to the 50 μL cell culture system, the culture was cultured in a 5% CO2, 37° C. cell incubator for 60 min, 300 ng/mL of M-CSF was added to the cells, and the mixture was stimulated in the 37° C. cell incubator for 1 min, added 50 μL of cell lysis buffer, and stored in a refrigerator at −80° C.
# 100 μL/well of the p-CSF1R capture antibody diluted to 0.8 μg/mL with PBS was added to the ELISA plate, and the plate was coated on a shaker at room temperature overnight. The culture was washed with PBST, and then added blocking solution and incubated at room temperature for 2 h. The culture was washed with PBST, added 90 μL of cell lysis buffer, and incubated on a shaker at 25° C. for 2 h. The plate was washed with PBST three times, added 100 μL of anti-p-tyrosine-HRP detection antibody diluted with 0.1% PBS-BSA diluent, and incubated on a shaker at 25° C. for 2 h. The plate was washed with PBST washing liquid, added 100 μL of chromogenic substrate and incubated at room temperature for 10-20 min. The reaction was stopped by adding 50 μL of 2N H2SO4. The optical density signal (450/570 nm) of each well was detected in Labsystems Multiskan K3 or Envision.
# wherein • Drug-treated well read-out: indicating the optical density signal of a cell well with the test compound treatment. • Background read-out: indicating the optical density signal of a well without cells but with cell lysis buffer. • Cell well read-out: indicating the optical density signal of a cell well not treated with the compound.
# 6. Calculation of IC50: obtained by using XL-Fit 5.3 software, […]
# Chain of Recombinant human CSF1R kinase (P07333 20-972): as above
IC50 [1],IC50 [2],Structure (SMILES)
6 nM,21 nM,COc1ccc([C@H]2COc3cc(Oc4ccnc(-c5cnn(C)c5)c4)cnc3O2)cc1 [Compound 68]
3 nM,17 nM,COc1ccc([C@@H]2COc3cc(Oc4ccnc(-c5cnn(C)c5)c4)cnc3O2)cn1 [Compound 69]
8 nM,15 nM,COc1ccc([C@H]2COc3cc(Oc4ccnc(-c5cnn(C)c5)c4)cnc3O2)cn1 [Compound 70]
30 nM,114 nM,O=c1ccnc2ccc(Oc3cnc4c(c3)OC[C@H](c3ccc(C5CC5)cn3)O4)cn12 [Compound 71]
14 nM,32 nM,O=c1ccnc2ccc(Oc3cnc4c(c3)OC[C@@H](c3ccc(C5CC5)cn3)O4)cn12 [Compound 72]
6 nM,17 nM,Cn1cc(-c2cc(Oc3cnc4c(c3)OC[C@H](c3ccc(C5CC5)cn3)O4)ccn2)cn1 [Compound 73]
5 nM,9 nM,Cn1cc(-c2cc(Oc3cnc4c(c3)OC[C@@H](c3ccc(C5CC5)cn3)O4)ccn2)cn1 [Compound 74]
15 nM,117 nM,Cc1cnc2ccc(Oc3cnc4c(c3)OC[C@H](c3ccc(C5CC5)cn3)O4)cn2c1=O [Compound 75]
8 nM,18 nM,Cc1cnc2ccc(Oc3cnc4c(c3)OC[C@@H](c3ccc(C5CC5)cn3)O4)cn2c1=O [Compound 76]
26 nM,64 nM,COc1ccc([C@@H]2COc3cc(Oc4ccc5nccc(=O)n5c4)cnc3O2)nc1 [Compound 78]
30 nM,182 nM,COc1ccc([C@H]2COc3cc(Oc4ccc5ncc(C)c(=O)n5c4)cnc3O2)nc1 [Compound 79]
13 nM,22 nM,COc1ccc([C@@H]2COc3cc(Oc4ccc5ncc(C)c(=O)n5c4)cnc3O2)nc1 [Compound 80]
10 nM,32 nM,COc1ccc([C@H]2COc3cc(Oc4ccnc(-c5cnn(C)c5)c4)cnc3O2)nc1 [Compound 81]
11 nM,13 nM,COc1ccc([C@@H]2COc3cc(Oc4ccnc(-c5cnn(C)c5)c4)cnc3O2)nc1 [Compound 82]
7 nM,138 nM,"COc1ccc([C@H]2COc3cc(Oc4ccc5nccc(=O)n5c4)cnc3O2)cn1 [Compound 83, (S)-7-((3-(6-methoxypyridin-3-yl)-2,3-dihydro-[1,4]dioxino[2,3-b]pyridin-7-yl)oxy)-4H-pyrido[1,2-a]pyrimidin-4-one]"
8 nM,84 nM,COc1ccc([C@H]2COc3cc(Oc4ccc5ncc(C)c(=O)n5c4)cnc3O2)cn1 [Compound 84]

# The remaining lines, values behind:
Structure (SMILES),IC50 [1],IC50 [2]
COc1ccc(COc2ncc(Oc3ccc4ncc(N5CCOCC5)c(=O)n4c3)cc2OC)cc1 [Compound 31],6 nM,10 nM
COc1ccc(COc2ncc(Oc3ccc4ncc(N)c(=O)n4c3)cc2OC)cc1 [Compound 32],3 nM,4 nM
COc1cc(Oc2ccc3ncc(N)c(=O)n3c2)cnc1OCc1ccc(C)cc1 [Compound 35],6 nM,12 nM
COc1cc(Oc2ccc3ncc(C4CC4)c(=O)n3c2)cnc1OCc1ccc(C)cc1 [Compound 36],21 nM,56 nM
COc1ccc(CCOc2ncc(Oc3ccc4ncc(C)c(=O)n4c3)cc2OC)cc1 [Compound 37],33 nM,140 nM
COc1ccccc1CCOc1ncc(Oc2ccc3ncc(C)c(=O)n3c2)cc1OC [Compound 38],24 nM,381 nM
COc1cccc(CCOc2ncc(Oc3ccc4ncc(C)c(=O)n4c3)cc2OC)c1 [Compound 39],15 nM,300 nM
COc1cc(Oc2ccc3ncc(C)c(=O)n3c2)cnc1OCCc1ccccc1 [Compound 40],33 nM,190 nM
Cc1cnc2ccc(Oc3cnc(OCc4ccc(Cl)cc4)nc3)cn2c1=O [Compound 41],23 nM,551 nM
Cc1cnc2ccc(Oc3cnc(OCc4ccc(C5CC5)cc4)nc3)cn2c1=O [Compound 42],13 nM,78 nM
COc1cc(Oc2ccc3ncc(C)c(=O)n3c2)cnc1OCc1ccccc1 [Compound 43],4 nM,54 nM
COc1cc(Oc2ccc3ncc(C)c(=O)n3c2)cnc1OCc1ccc(C)cc1 [Compound 44],4 nM,19 nM
"Cc1cnc2ccc(Oc3cnc4c(c3)OCC(c3ccc(C5CC5)cc3)O4)cn2c1=O (centres unmarked) [Compound 45, 7-((3-(4-cyclopropylphenyl)-2,3-dihydro-[1,4]dioxino[2,3-b]pyrin-7-yl)oxy)-3-methyl-4H-pyrido[1,2-a]pyrimidin-4-one]",36 nM,61 nM
"COc1cc(Cc2ccnc(-c3cnn(C)c3)c2)cnc1OCc1ccc(C2CC2)cc1 [Compound 46, 2-((4-cyclopropylbenzyl)oxy)-3-methoxy-5-((2-(1-methyl-1H-pyrazol-4-yl)pyridin-4-yl)methyl)pyridine]",28 nM,5 nM
"COc1ccc(COc2ncc(Cc3ccc4ncc(C)c(=O)n4c3)cc2OC)cc1 [Compound 47, 7-((5-methoxy-6-((4-methoxybenzyl)oxy)pyridin-3-yl)methyl)-3-methyl-4H-pyrido[1,2-a]pyrimidin-4-one]",13 nM,12 nM
"OCCn1cc(-c2cc(Oc3cnc4c(c3)OCC(c3ccc(C5CC5)cc3)O4)ccn2)cn1 (centres unmarked) [Compound 52, 2-(4-(4-((3-(4-cyclopropylphenyl)-2,3-dihydro-[1,4]dioxino[2,3-b]pyridin-7-yl)oxy)pyridin-2-yl)-1H-pyrazol-1-yl)ethan-1-ol]",19 nM,34 nM
Cc1cnc2ccc(Oc3cnc4c(c3)OC[C@@H](c3ccc(C5CC5)cc3)O4)cn2c1=O [Compound 57],15 nM,16 nM
Cc1cnc2ccc(Oc3cnc4c(c3)OC[C@H](c3ccc(C5CC5)cc3)O4)cn2c1=O [Compound 58],12 nM,26 nM
O=c1ccnc2ccc(Oc3cnc4c(c3)OC[C@@H](c3ccc(C5CC5)nc3)O4)cn12 [Compound 59],5 nM,50 nM
O=c1ccnc2ccc(Oc3cnc4c(c3)OC[C@H](c3ccc(C5CC5)nc3)O4)cn12 [Compound 60],6 nM,52 nM
Cc1cnc2ccc(Oc3cnc4c(c3)OC[C@@H](c3ccc(C5CC5)nc3)O4)cn2c1=O [Compound 61],3 nM,29 nM
Cc1cnc2ccc(Oc3cnc4c(c3)OC[C@H](c3ccc(C5CC5)nc3)O4)cn2c1=O [Compound 62],4 nM,47 nM
COc1ccc([C@@H]2COc3cc(Oc4ccc5nccc(=O)n5c4)cnc3O2)cc1 [Compound 63],5 nM,18 nM
COc1ccc([C@H]2COc3cc(Oc4ccc5nccc(=O)n5c4)cnc3O2)cc1 [Compound 64],10 nM,42 nM
COc1ccc([C@@H]2COc3cc(Oc4ccc5ncc(C)c(=O)n5c4)cnc3O2)cc1 [Compound 65],5 nM,10 nM
COc1ccc([C@H]2COc3cc(Oc4ccc5ncc(C)c(=O)n5c4)cnc3O2)cc1 [Compound 66],10 nM,56 nM
COc1ccc([C@@H]2COc3cc(Oc4ccnc(-c5cnn(C)c5)c4)cnc3O2)cc1 [Compound 67],5 nM,16 nM
